Data reported in EP0176033A2, “Isoxazolecarboxylic-acid derivatives, their preparation and use” (BASF Aktiengesellschaft, priority 1984, dated 1986).

System: Rhino-Maus
Assay: Rhino mouse model: reduction of utriculus diameter after topical application (comedolytic activity)
Assay type: in vivo
Conditions: 100 µl on the back, once daily, 5 days per week, 2 weeks, versus untreated control group
Excerpt: Die antiarthritische Wirkung der erfindungsgemäßen Verbindungen kann in üblicher Weise im Tierexperiment im Adjuvans-Arthritis-Modell bestimmt werden. Die dermatologische Aktivität, beispielsweise für die Behandlung von Akne, kann u. a. durch die komedolytische Aktivität und die Fähigkeit nachgewiesen werden, die Anzahl der Zysten im Modell der Rhino--Maus zu reduzieren.
Diese Methode ist von L. H. Kligman et al in The Journal of Investigative Dermatology 73, 354 - 358 (1979) und von J.A. Mezick et al. in "Models of Dermatalogy" (Ed. Maibach, Läwe), Vol. 2, S. 59-63, Karger, Basel 1985) beschrieben.
Die Testsubstanz wurde in einem geeigneten Vehikel auf der gesamten Rückenpartie der Rhino-Maus topisch aufgetragen (100 µl), einmal täglich, an fünf aufeinanderfolgenden Tagen pro Woche, zwei Wochen lang ungefähr 72 h nach der letzten Behandlung wurde die dorsale Haut entfernt und in 0,5 Xiger Essigsäure 18 h bei 4-6°C belassen. Danach wurde eine ca. 2 x 5 cm^2 große Fläche herausgeschnitten, die Epidermis abgeschält, auf einen Objektträger aufgebracht (mit der dermalen Seite nach oben) und mittels Alkohol/Xylol wasserfrei gespült, bis die Epidermis durchsichtig erscheint. Die Probe wurde durch Uberziehen mit Permount fixiert und mikroskopisch ausgewertet. […]

Compound: C/C(=C\c1cc(C(=O)O)no1)c1ccc2c(c1)C(C)(C)CCC2(C)C [Beispiel 17a, (E)-5-[2-(5,5,8,8-Tetramethyl-5,6,7,8-tetrahydro-naphth--2-yl)-1-propenyl]isoxazol-3-carbonsäure]
- Reduktion des Utriculusdurchmessers in % (Dosis 0,2 mg/ml): 45,1%
- Reduktion des Utriculusdurchmessers in % (Dosis 2 mg/ml): 75,6%
